Results reported in the supplement of paper PMC5908809.

How the values were obtained:
IMC-1 (IL-2 20 ng/mL) [1] = assay: percent inhibition of viability; higher = more inhibition; settings: 72 h
[2] = test system: normal primary NK cells, pool 3 (3 donors) (IL-2 2.5 ng/mL); assay: as above; settings: 72 h
NKL (IL-2 2.5 ng/mL) [3] = assay: as above; settings: 72 h
SNK-6 (IL-2 2.5 ng/mL) [4] = assay: as above; settings: 72 h
KAI3 (IL-2 2.5 ng/mL) [5] = assay: as above; settings: 72 h
[6] = test system: normal primary NK cells, pool 2 (3 donors) (IL-2 2.5 ng/mL); assay: as above; settings: 72 h
[7] = test system: normal primary NK cells, pool 1 (3 donors), resting (IL-2 0 ng/mL); assay: as above; settings: 72 h
NK-YS (IL-2 2.5 ng/mL) [8] = assay: as above; settings: 72 h
YT (IL-2 2.5 ng/mL) [9] = assay: as above; settings: 72 h
[10] = test system: normal primary NK cells, pool 1 (3 donors) (IL-2 2.5 ng/mL); assay: as above; settings: 72 h
DERL-7 (IL-2 2.5 ng/mL) [11] = assay: as above; settings: 72 h
KHYG-1 (IL-2 2.5 ng/mL) [12] = assay: as above; settings: 72 h
NK-92 (IL-2 2.5 ng/mL) [13] = assay: as above; settings: 72 h
[14] = test system: normal NK cells expanded with K562-aAPC; assay: drug sensitivity score (DSS) (DSS units); higher = more sensitive; extreme values may be limits of the assay; settings: 72 h; IL-2 2.5 ng/mL
Method: (§1)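 Drug sensitivity and resistance testing on K562-aAPC-expanded normal NK cells: 5 concentrations (10-fold steps over a 10,000-fold range), 72 h at 37 °C, viability by CellTiter-Glo normalised to DMSO and benzethonium chloride controls; DSS from the fitted curve.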

[15] = test system: normal NK cells expanded with K562-aAPC; assay: percent inhibition of viability; higher = more inhibition; settings: 72 h, IL-2 2.5 ng/mL
Method: as §1

IMC-1 (IL-2 20 ng/mL) [16] = assay: drug sensitivity score (DSS) (DSS units); higher = more sensitive; extreme values may be limits of the assay; settings: 72 h
[17] = test system: normal primary NK cells, pool 3 (3 donors) (IL-2 2.5 ng/mL); assay: as above; settings: 72 h
NKL (IL-2 2.5 ng/mL) [18] = assay: as above; settings: 72 h
SNK-6 (IL-2 2.5 ng/mL) [19] = assay: as above; settings: 72 h
KAI3 (IL-2 2.5 ng/mL) [20] = assay: as above; settings: 72 h
[21] = test system: normal primary NK cells, pool 2 (3 donors) (IL-2 2.5 ng/mL); assay: as above; settings: 72 h
[22] = test system: normal primary NK cells, pool 1 (3 donors), resting (IL-2 0 ng/mL); assay: as above; settings: 72 h
NK-YS (IL-2 2.5 ng/mL) [23] = assay: as above; settings: 72 h
YT (IL-2 2.5 ng/mL) [24] = assay: as above; settings: 72 h
[25] = test system: normal primary NK cells, pool 1 (3 donors) (IL-2 2.5 ng/mL); assay: as above; settings: 72 h
DERL-7 (IL-2 2.5 ng/mL) [26] = assay: as above; settings: 72 h
KHYG-1 (IL-2 2.5 ng/mL) [27] = assay: as above; settings: 72 h
NK-92 (IL-2 2.5 ng/mL) [28] = assay: as above; settings: 72 h

C=CCNC1=C2C[C@@H](C)C[C@H](OC)[C@H](O)[C@@H](C)/C=C(\C)[C@H](OC(N)=O)[C@@H](OC)/C=C\C=C(/C)C(=O)NC(=CC1=O)C2=O [Tanespimycin] (max concentration tested 10000 nM)
percent inhibition of viability [%]
Settings	1 nM	10 nM	100 nM	1000 nM	10000 nM
DERL-7 (IL-2 2.5 ng/mL) [11]	0.9	-1.85	35.9	101	101
IMC-1 (IL-2 20 ng/mL) [1]	-1.67	0.76	3.61	99.8	101
KAI3 (IL-2 2.5 ng/mL) [5]	0.55	5.14	60.9	104	105
KHYG-1 (IL-2 2.5 ng/mL) [12]	-4.47	0.32	7.33	103	106
NK-92 (IL-2 2.5 ng/mL) [13]	-11.8	-0.27	37.7	99.1	100
NK-YS (IL-2 2.5 ng/mL) [8]	-3.46	-0.46	63.4	103	105
NKL (IL-2 2.5 ng/mL) [3]	-8.98	-11.1	73.2	91.9	91.2
SNK-6 (IL-2 2.5 ng/mL) [4]	3.74	-19.1	41.6	87.7	89.8
YT (IL-2 2.5 ng/mL) [9]	-5.76	-8.38	13.2	94.7	101
[2]	-2.89	-1.44	15.4	76.7	89.1
[6]	-2.56	2.25	36.4	80	85.7
[7]	-6.62	18.1	28.8	51.2	69.4
[10]	1.58	12.9	49.5	87.4	92.3
[15]	-6.12	-2.4	32.3	99.3	100

Settings	drug sensitivity score
DERL-7 (IL-2 2.5 ng/mL) [26]	23
IMC-1 (IL-2 20 ng/mL) [16]	18.4
KAI3 (IL-2 2.5 ng/mL) [20]	25.3
KHYG-1 (IL-2 2.5 ng/mL) [27]	19.3
NK-92 (IL-2 2.5 ng/mL) [28]	23.1
NK-YS (IL-2 2.5 ng/mL) [23]	25.4
NKL (IL-2 2.5 ng/mL) [18]	25
SNK-6 (IL-2 2.5 ng/mL) [19]	21.6
YT (IL-2 2.5 ng/mL) [24]	19.1
[14]	22.6
[17]	16
[21]	19.2
[22]	14
[25]	22.4

COc1ccc(CCc2nc3cc(-c4c(C)noc4C)ccc3n2C[C@H](C)N2CCOCC2)cc1Cl [SGC-CBP30] (max concentration tested 25000 nM)
percent inhibition of viability [%]
Settings	2.5 nM	25 nM	250 nM	2500 nM	25000 nM
DERL-7 (IL-2 2.5 ng/mL) [11]	0.1	3.95	12.3	60.5	96.1
IMC-1 (IL-2 20 ng/mL) [1]	-7.53	-9.31	-8.36	-20.2	35.3
KAI3 (IL-2 2.5 ng/mL) [5]	1.53	-3.88	-18.5	-12.8	51.8
KHYG-1 (IL-2 2.5 ng/mL) [12]	-1.44	-8.58	-1.59	16.4	99.4
NK-92 (IL-2 2.5 ng/mL) [13]	-16.2	-20.5	-26.2	-17.7	64.4
NK-YS (IL-2 2.5 ng/mL) [8]	-1.97	-5.16	0.38	22.5	67.9
NKL (IL-2 2.5 ng/mL) [3]	0.5	1.11	1.38	53.1	72.8
SNK-6 (IL-2 2.5 ng/mL) [4]	-3.48	-9.35	6.99	15.5	20.9
YT (IL-2 2.5 ng/mL) [9]	-1.31	-7.71	-7.11	10.1	70
[2]	-5.75	-3.57	2.2	8.83	68.9
[6]	-5.14	-1.93	8.85	24.7	90.1
[7]	18.2	2.19	20.6	19.9	86
[10]	-4.81	2.68	13	33.8	96.6
[15]	-5.48	-4.45	-3.35	8.12	84.2

Settings	drug sensitivity score
DERL-7 (IL-2 2.5 ng/mL) [26]	13.3
IMC-1 (IL-2 20 ng/mL) [16]	1.04
KAI3 (IL-2 2.5 ng/mL) [20]	2.09
KHYG-1 (IL-2 2.5 ng/mL) [27]	8.22
NK-92 (IL-2 2.5 ng/mL) [28]	2.67
NK-YS (IL-2 2.5 ng/mL) [23]	6.98
NKL (IL-2 2.5 ng/mL) [18]	10.4
SNK-6 (IL-2 2.5 ng/mL) [19]	2.41
YT (IL-2 2.5 ng/mL) [24]	5.56
[14]	5.98
[17]	5.27
[21]	8.45
[22]	7.45
[25]	9.22

CCC(C)n1ncn(-c2ccc(N3CCN(c4ccc(OCC5COC(Cn6cncn6)(c6ccc(Cl)cc6Cl)O5)cc4)CC3)cc2)c1=O (stereo unspecified) [Itraconazole] (max concentration tested 5000 nM)
percent inhibition of viability [%]
Settings	0.5 nM	5 nM	50 nM	500 nM	5000 nM
DERL-7 (IL-2 2.5 ng/mL) [11]	7.65	4.19	-0.11	8.64	83.6
IMC-1 (IL-2 20 ng/mL) [1]	-1.82	-3.66	-2.37	9.1	29.4
KAI3 (IL-2 2.5 ng/mL) [5]	6.2	-4.32	-3.2	12.8	91.9
KHYG-1 (IL-2 2.5 ng/mL) [12]	-2.72	3.74	1.39	6.98	98.1
NK-92 (IL-2 2.5 ng/mL) [13]	-7.29	-11.1	-8.89	38.2	91.5
NK-YS (IL-2 2.5 ng/mL) [8]	3.15	-1.22	-1.67	8.46	68.9
NKL (IL-2 2.5 ng/mL) [3]	6.31	-2.93	-3.73	-6.13	84.8
SNK-6 (IL-2 2.5 ng/mL) [4]	-8.18	3.54	19.4	39.2	93.4
YT (IL-2 2.5 ng/mL) [9]	-3.86	-5.55	-5.66	0.63	45.8
[2]	-9.47	-2.98	-1.54	12.1	22.5
[6]	0.8	-6.34	8.01	14.5	25.8
[7]	-22.8	-11.8	-19.2	-4.28	28.1
[10]	-10.8	-2.66	-5.12	4.85	30.5
[15]	-0.18	-0.93	0.65	2.54	33

Settings	drug sensitivity score
DERL-7 (IL-2 2.5 ng/mL) [26]	6.05
IMC-1 (IL-2 20 ng/mL) [16]	2.54
KAI3 (IL-2 2.5 ng/mL) [20]	7.24
KHYG-1 (IL-2 2.5 ng/mL) [27]	6.51
NK-92 (IL-2 2.5 ng/mL) [28]	10.1
NK-YS (IL-2 2.5 ng/mL) [23]	5.2
NKL (IL-2 2.5 ng/mL) [18]	4.25
SNK-6 (IL-2 2.5 ng/mL) [19]	10.3
YT (IL-2 2.5 ng/mL) [24]	2.44
[14]	1.9
[17]	2.08
[21]	2.45
[22]	0.93
[25]	2.13

CS(=O)(=O)c1ccc(-c2cnc(N)c(C(=O)Nc3ccccc3)n2)cc1 [VE-821] (max concentration tested 10000 nM)
percent inhibition of viability [%]
Settings	1 nM	10 nM	100 nM	1000 nM	10000 nM
DERL-7 (IL-2 2.5 ng/mL) [11]	4.33	7.29	1.29	12.9	50.9
IMC-1 (IL-2 20 ng/mL) [1]	-4.03	0.79	-1.04	4.32	67.9
KAI3 (IL-2 2.5 ng/mL) [5]	-6.99	-6.14	7.79	43.5	52
KHYG-1 (IL-2 2.5 ng/mL) [12]	-3.09	-0.84	3.42	23.8	95.3
NK-92 (IL-2 2.5 ng/mL) [13]	-13.2	-3.86	2.78	36	48
NK-YS (IL-2 2.5 ng/mL) [8]	-5.61	-3.96	4.64	25.1	40.2
NKL (IL-2 2.5 ng/mL) [3]	-16.3	-14.8	-15.7	-0.56	24.9
SNK-6 (IL-2 2.5 ng/mL) [4]	3.87	-9.33	-1.01	33.3	52.1
YT (IL-2 2.5 ng/mL) [9]	-4.34	-6.49	-4.51	4.75	9.28
[2]	-3.66	1.35	5.12	0.23	15.6
[6]	-7.66	8.41	7.62	7.68	15.6
[7]	9.92	20.7	22.8	23	21.5
[10]	-1.78	22.5	3.18	5.45	6.99
[15]	-5.95	-7.38	-2.06	18.1	32.8

Settings	drug sensitivity score
DERL-7 (IL-2 2.5 ng/mL) [26]	4.71
IMC-1 (IL-2 20 ng/mL) [16]	4.37
KAI3 (IL-2 2.5 ng/mL) [20]	8.88
KHYG-1 (IL-2 2.5 ng/mL) [27]	8.93
NK-92 (IL-2 2.5 ng/mL) [28]	7.01
NK-YS (IL-2 2.5 ng/mL) [23]	4.96
NKL (IL-2 2.5 ng/mL) [18]	0.89
SNK-6 (IL-2 2.5 ng/mL) [19]	6.77
YT (IL-2 2.5 ng/mL) [24]	0
[14]	3.68
[17]	0.29
[21]	0.62
[22]	0
[25]	0
